Each structure is given as a SMILES string.

Test [1] concerns RAF proto-oncogene serine/threonine-protein kinase (Homo sapiens), P04049 [Y340D,Y341D]. The test can be described thus: Selectivity interaction (Kinase panel (Z-LYTE Assay)) EUB0001632a RAF1. To be noted: at 10 µM.
The target in test [2] is Serine/threonine-protein kinase B-raf (Homo sapiens) (UniProt P15056). Kind of test: Selectivity interaction (Kinase panel (KiNativ target engagement assay in Jurkat cells)) EUB0001635a BRAF. The format is cell-based. To be noted: Selectivity number of off-targets 0.0, Selectivity number of targets 233.0, Source Knowledge https://www.sciencedirect.com/science/article/pii/S2451945619300674?via%3Dihub, at 1 µM.
Sequence of Serine/threonine-protein kinase B-raf (Homo sapiens) (P15056 whole entry): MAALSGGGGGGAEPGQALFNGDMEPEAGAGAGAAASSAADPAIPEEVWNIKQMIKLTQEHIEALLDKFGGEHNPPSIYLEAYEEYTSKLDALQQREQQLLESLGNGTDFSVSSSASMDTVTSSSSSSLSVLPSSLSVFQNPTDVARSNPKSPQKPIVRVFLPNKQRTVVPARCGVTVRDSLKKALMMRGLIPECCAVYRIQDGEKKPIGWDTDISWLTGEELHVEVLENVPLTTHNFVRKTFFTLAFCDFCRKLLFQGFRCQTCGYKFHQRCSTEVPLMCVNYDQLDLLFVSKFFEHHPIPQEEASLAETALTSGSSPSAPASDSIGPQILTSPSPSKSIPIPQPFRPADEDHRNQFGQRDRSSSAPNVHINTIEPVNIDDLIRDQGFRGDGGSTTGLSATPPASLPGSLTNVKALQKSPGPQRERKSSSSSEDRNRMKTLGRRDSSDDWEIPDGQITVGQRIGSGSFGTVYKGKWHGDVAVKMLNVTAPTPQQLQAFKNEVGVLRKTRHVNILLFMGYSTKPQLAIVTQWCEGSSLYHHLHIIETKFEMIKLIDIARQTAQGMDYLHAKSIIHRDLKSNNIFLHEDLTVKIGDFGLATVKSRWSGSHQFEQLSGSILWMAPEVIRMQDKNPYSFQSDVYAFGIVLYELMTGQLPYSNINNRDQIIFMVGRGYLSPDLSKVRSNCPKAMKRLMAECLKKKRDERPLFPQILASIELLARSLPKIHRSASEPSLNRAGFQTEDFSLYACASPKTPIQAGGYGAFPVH

In test [3] the target is T1, Serine/threonine-protein kinase ULK2 (Homo sapiens) (UniProt Q8IYT8).
T1 sequence (whole entry): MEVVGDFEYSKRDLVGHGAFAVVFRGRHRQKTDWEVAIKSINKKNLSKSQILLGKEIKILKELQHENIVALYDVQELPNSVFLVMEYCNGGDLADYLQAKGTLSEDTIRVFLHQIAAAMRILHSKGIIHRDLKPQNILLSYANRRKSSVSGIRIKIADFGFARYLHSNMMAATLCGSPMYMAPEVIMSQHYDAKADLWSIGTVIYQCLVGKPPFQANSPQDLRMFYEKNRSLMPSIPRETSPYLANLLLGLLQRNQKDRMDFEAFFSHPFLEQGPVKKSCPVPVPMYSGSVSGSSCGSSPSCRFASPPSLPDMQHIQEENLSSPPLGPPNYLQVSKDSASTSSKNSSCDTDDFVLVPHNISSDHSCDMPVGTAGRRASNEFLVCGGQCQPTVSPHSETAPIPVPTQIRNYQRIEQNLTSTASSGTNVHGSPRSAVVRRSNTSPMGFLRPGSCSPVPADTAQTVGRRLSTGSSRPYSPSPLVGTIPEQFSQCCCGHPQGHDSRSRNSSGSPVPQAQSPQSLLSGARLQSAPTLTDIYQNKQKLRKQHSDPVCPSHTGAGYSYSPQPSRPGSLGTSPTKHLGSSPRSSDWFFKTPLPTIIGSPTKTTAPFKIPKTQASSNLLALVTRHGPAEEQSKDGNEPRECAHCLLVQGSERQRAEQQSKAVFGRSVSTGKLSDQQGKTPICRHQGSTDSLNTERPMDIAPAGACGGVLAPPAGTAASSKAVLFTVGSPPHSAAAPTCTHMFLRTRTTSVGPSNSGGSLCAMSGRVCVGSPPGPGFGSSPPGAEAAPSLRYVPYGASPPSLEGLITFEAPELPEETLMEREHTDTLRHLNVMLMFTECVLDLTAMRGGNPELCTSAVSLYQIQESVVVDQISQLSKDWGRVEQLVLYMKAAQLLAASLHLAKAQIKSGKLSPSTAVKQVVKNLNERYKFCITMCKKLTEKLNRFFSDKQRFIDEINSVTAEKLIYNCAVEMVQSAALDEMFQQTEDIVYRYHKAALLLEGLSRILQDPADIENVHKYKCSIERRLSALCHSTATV
The test can be described thus: Selectivity interaction (Ambit KINOMEscan and KiNATiv profiling in Jurkat cells) EUB0000090b ULK2. It is filed as cell-based. To be noted: at 1 µM.

Test [4] concerns the target Mitogen-activated protein kinase 8 (Homo sapiens, UniProt P45983). Kind of test: Selectivity interaction (KinomeScan (DiscoverX)) EUB0000666a MAPK8. To be noted: at 10 µM.
Test [5] concerns the target T2, Aurora kinase A (Homo sapiens) (UniProt O14965).
T2 sequence (whole entry): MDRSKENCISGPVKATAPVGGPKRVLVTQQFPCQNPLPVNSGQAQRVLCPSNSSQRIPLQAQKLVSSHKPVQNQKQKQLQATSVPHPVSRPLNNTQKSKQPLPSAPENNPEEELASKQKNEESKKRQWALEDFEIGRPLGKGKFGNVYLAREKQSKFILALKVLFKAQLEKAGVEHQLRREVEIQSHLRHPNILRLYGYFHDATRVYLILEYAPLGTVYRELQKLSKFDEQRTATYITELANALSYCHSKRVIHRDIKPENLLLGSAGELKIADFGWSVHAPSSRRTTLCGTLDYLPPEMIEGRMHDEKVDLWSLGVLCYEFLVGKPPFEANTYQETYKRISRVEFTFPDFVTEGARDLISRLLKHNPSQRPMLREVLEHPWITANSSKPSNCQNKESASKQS
The test can be described thus: Selectivity interaction (Kinase panel (DSF assay)) EUB0001558a STK6.

Test [6] concerns the target Ribosomal protein S6 kinase alpha-1 (Homo sapiens, UniProt Q15418). The test can be described thus: Selectivity interaction (ActivX KiNativ screen (kinase selectivity in THP-1 cell lysates)) EUB0000639a RPS6KA1. The format is subcellular. To be noted: lysate, at 5 µM.
For test [7], the target named is T3, Non-receptor tyrosine-protein kinase TNK1 (Homo sapiens) (UniProt Q13470).
T3 sequence (whole entry): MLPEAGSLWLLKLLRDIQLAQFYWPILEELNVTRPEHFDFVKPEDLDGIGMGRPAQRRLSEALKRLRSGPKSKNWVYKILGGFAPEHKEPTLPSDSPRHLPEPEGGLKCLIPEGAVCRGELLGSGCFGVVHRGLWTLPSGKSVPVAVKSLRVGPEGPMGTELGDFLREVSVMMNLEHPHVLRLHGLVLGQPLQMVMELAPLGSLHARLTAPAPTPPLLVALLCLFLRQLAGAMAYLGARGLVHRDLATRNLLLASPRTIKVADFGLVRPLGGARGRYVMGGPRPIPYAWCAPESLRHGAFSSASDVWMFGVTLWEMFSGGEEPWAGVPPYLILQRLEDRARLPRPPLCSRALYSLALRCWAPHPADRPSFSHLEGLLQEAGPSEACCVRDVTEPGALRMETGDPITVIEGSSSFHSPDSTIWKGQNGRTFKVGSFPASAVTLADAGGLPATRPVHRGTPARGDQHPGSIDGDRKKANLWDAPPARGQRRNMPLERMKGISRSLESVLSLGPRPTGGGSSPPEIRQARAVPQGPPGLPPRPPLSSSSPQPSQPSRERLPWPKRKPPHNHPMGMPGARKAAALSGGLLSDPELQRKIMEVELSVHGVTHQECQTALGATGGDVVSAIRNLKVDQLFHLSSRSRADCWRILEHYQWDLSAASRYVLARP
The test can be described thus: Selectivity interaction (KinomeScan (DiscoverX)) EUB0000618a TNK1. To be noted: at 10 µM.

Sequence of Ribosomal protein S6 kinase alpha-1 (Q15418 whole entry): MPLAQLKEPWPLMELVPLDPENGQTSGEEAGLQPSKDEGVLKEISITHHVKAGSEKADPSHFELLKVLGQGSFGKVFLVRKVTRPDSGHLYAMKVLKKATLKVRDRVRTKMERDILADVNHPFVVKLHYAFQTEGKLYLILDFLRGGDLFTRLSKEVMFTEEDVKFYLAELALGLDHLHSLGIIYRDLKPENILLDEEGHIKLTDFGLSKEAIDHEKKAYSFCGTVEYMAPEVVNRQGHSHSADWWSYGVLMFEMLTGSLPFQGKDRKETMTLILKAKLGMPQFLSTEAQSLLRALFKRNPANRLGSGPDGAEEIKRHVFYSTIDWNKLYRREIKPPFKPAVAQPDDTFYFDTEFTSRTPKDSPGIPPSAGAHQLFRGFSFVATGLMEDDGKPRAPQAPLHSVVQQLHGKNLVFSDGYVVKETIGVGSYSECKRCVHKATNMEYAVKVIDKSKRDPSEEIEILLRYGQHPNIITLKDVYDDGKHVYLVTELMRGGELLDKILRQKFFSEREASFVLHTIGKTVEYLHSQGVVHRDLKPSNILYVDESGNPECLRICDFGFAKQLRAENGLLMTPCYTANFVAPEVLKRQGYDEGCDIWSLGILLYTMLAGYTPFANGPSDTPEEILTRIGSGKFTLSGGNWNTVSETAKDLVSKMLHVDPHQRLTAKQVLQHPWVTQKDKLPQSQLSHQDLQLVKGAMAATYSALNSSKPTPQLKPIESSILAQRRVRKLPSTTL
Sequence of Mitogen-activated protein kinase 8 (P45983 whole entry): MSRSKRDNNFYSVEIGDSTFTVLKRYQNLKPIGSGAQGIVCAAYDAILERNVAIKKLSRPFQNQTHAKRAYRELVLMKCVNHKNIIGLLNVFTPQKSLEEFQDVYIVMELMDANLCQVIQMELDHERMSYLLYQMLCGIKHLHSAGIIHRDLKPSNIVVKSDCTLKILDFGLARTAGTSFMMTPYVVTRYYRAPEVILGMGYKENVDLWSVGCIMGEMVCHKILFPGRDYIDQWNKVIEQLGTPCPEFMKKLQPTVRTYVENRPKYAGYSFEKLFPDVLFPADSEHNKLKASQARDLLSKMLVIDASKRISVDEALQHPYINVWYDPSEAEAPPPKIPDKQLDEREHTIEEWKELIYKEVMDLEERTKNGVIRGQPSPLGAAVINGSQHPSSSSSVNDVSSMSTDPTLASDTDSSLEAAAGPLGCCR
Sequence of RAF proto-oncogene serine/threonine-protein kinase (Homo sapiens), P04049 [Y340D,Y341D] (P04049 whole entry Y340D/Y341D): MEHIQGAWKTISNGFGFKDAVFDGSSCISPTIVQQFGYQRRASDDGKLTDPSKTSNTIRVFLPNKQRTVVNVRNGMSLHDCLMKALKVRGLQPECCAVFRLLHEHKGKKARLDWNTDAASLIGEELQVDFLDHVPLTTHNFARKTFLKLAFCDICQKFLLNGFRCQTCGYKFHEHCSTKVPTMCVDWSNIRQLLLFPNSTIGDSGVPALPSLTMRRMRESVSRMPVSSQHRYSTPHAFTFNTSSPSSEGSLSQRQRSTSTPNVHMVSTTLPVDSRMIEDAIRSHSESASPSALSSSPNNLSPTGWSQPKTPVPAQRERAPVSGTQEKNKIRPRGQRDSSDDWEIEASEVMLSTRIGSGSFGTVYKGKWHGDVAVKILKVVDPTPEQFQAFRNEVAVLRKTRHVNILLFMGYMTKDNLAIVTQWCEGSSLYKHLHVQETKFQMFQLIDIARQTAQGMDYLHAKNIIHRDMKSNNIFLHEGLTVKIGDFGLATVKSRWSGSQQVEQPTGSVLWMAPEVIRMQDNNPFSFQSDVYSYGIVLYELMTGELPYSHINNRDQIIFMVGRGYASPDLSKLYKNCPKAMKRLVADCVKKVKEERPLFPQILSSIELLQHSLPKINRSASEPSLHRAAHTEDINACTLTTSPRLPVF

For the molecule `Cn1cc(-n2cnc3c(NCc4nc5cc(Cl)c(Cl)cc5[nH]4)nc(N4CCOCC4)nc32)cn1`, the % of control in test [1] was -1.53%.

`C=CC(=O)Nc1ccc(C(=O)Nc2[nH]nc3c2CN(C(=O)N[C@H](CN(C)C)c2ccccc2)C3(C)C)cc1` registered a % of engagement in test [2] of 2.4%.

Regarding `CN(C)C/C=C/C(=O)Nc1ccc(C(=O)N2CCCC(Nc3ncc(Cl)c(-c4c[nH]c5ccccc45)n3)C2)cc1` (configuration not stated), the % of control in test [3] was 100%.

Regarding `O=C(NOC[C@H](O)CO)c1ccc(F)c(F)c1Nc1ccc(I)cc1F`, the % of control in test [4] turned out to be 92%.

`CC(C)(O)[C@H](F)CN1Cc2cc(NC(=O)c3cnn4cccnc34)c(N3CCOCC3)cc2C1=O` yielded a dTM in test [5] of 3.3 K.

On to `CC[C@@H]1[C@H](F)C(=O)N[C@@H]1COc1nccc2cc(C(N)=O)c(OC)cc12` [ZIMLOVISERTIB], for which, in test [6], the % of inhibition is 11.7%.

`O[C@H]1CC[C@H](Nc2ncc3nc(Nc4c(F)cc(F)cc4F)n([C@H]4CCOC4)c3n2)CC1`: the % of control in test [7] stood at 97%.

The values above are taken from ChEMBL document CHEMBL5465560, “Selectivity Literature for EUbOPEN Chemogenomic Library” (2024).
